Values after ≈ are worked out from the molar mass of the structure shown. Active and inactive are the calls of the source. The rule behind the calls is not given here.
Key:
[1] = tested on: MCF7; test: Cytotoxicity against human MCF7 cells by MTT assay; format: functional, cell-based
[2] = tested on: A549; test: Cytotoxicity against human A549 cells by MTT assay; format: functional, cell-based
[3] = tested on: HepG2; test: Cytotoxicity against human HepG2 cells by MTT assay; format: functional, cell-based
[4] = tested on: MDA-MB-23; test: (§1) Cytotoxicity against human […] by MTT assay; format: functional, cell-based
[5] = tested on: RAW264.7; test: Antiinflammatory activity in LPS-stimulated mouse RAW264.7 cells assessed as reduction of COX2 expression by immunoblot analysis relative to control; format: functional, cell-based
[6] = tested on: RAW264.7; test: Antiinflammatory activity in LPS-stimulated mouse RAW264.7 cells assessed as reduction of iNOS levels at 50 uM by immunoblot analysis relative to control; format: functional; design: scale not given: the % may be the effect or the level left
[7] = as §1; format: functional, cell-based
[8] = tested on: RAW264.7; test: Induction of iNOS levels in LPS-stimulated mouse RAW264.7 cells at 50 uM by immunoblot analysis relative to control; format: functional
[9] = tested on: RAW264.7; test: Induction of COX2 expression in LPS-stimulated mouse RAW264.7 cells at 50 uM by immunoblot analysis relative to control; format: functional

Structure (SMILES)	Activity [1]	Activity [2]	Activity [3]	Activity [4]	Activity [5]	Activity [6]	IC50 [7] [µg/mL]	Activity [8] [%]	Activity [9] [%]
CO[C@@]1(C(C)(C)O)/C=C/[C@](C)(O)CC/C=C(\C)CC(=O)C[C@@H](C)CC1 (relative stereo)	inactive	inactive	inactive	inactive	–	–	–	–	–
C/C1=C\C=C(\C(C)(C)O)CC[C@H](C)CC(=O)C/C(C)=C/CC1 [GRANDILOBATIN D]	inactive	inactive	inactive	–	inactive	28.7%	15.8 (≈ 51.9 µM)	–	–
C/C1=C/C(=O)C[C@@H](C)CC/C(C(C)(C)O)=C\C=C(/C)CCC1	inactive	inactive	inactive	inactive	–	–	–	–	–
C/C1=C\CC[C@]2(C)O[C@H]2/C=C(/C(C)(C)O)CC[C@H](C)CC(=O)C1 (relative stereo) [GRANDILOBATIN B]	inactive	inactive	inactive	inactive	inactive	inactive	–	112.4	117.3
C/C1=C\CCC(=O)[C@H](C)/C=C(/C(C)(C)O)CC[C@H](C)CC(=O)C1	inactive	inactive	inactive	inactive	–	–	–	–	–

— ChEMBL document CHEMBL1157386, “A C-3 methylated isocembranoid and 10-oxocembranoids from a formosan soft coral, Sinularia grandilobata” (J Nat Prod, 2008)
